Results from patent US20030152500A1, “Rotor-stator apparatus and process for the formation of particles” (priority 2001, published 2003).

Key:
[1] = Primary crystal/particle size by image analysis; assay type: physicochemical; conditions: Example 8: 15% (w/w) glycine 14 mL/min, ethanol 190 mL/min, anhydrous ethanol quench
Experimental: The same procedure as in Example 7 was used, except the feed rate of the 15% (w/w) aqueous glycine solution was 14 mL/min and the feed rate of the anhydrous ethanol antisolvent was 190 mL/min. A quenching solution of anhydrous ethanol (>99%) was used.
Salicylic acid […] was dissolved in anhydrous ethanol (>99%) at a concentration of 24.8% (w/w). This solution was fed to the same apparatus as configured in Example 1. Water was co-fed as the antisolvent.

[2] = Crystal size of rotor-stator exit stream observed under videomicroscope

## NCC(=O)O [glycine, Glycine]
[1]
  mean size of primary crystals: 4.4 μm
[2]; Example 1: 5% (w/w) aqueous glycine 190 mL/min, ethanol 190 mL/min, 10,000 rpm, quench 50% water 50% ethanol
  mean size of crystals: 25 μm
[2]; Example 3: as Example 1, rotor-stator speed 5,000 rpm
  mean size of crystals: 40 μm
[2]; Example 4: as Example 1, 15% (w/w) glycine solution
  mean size of crystals: 40 μm
[2]; Example 5: as Example 1, 15% (w/w) glycine, 5,000 rpm
  mean size of crystals: 70 μm
[2]; Example 6: as Example 1, 15% (w/w) glycine, 0 rpm
  mean length of crystals: 300 μm
[2]; Example 7: 15% (w/w) glycine 21 mL/min, ethanol 190 mL/min
  mean size of crystals: 6 μm
